Measured values from patent US20080051438A1, “Preventive/Therapeutic Compositions Useful for Treating Cardiovascular Diseases” (priority 2006, published 2008).
Several values for one entry are separate records, joined by “and”; a condition that tells them apart may be missing. Equal entries are not always repeated. Marks after values point to notes of the source that are not given here.

Tests used:
Type in all cases: in vivo, human
hypertensive patients [1] = test: Special investigation of combined use of cilnidipine and ARB: changes in systolic and diastolic blood pressure; conditions: for diastolic BP, aft. / systolic BP, aft. / diastolic BP, bef. / systolic BP, bef.: all availability cases; for diastolic BP, bef. use / systolic BP, bef. use / diastolic BP, aft. use / systolic BP, aft. use: only ARB
Protocol: (§1) A special investigation was conducted in various medical centers, compiled, and analyzed to evaluate the safety and availability of the combined use of cilnidipine and at least one angiotensin II receptor blocker.
(§2) The subjects of the investigation were hypertensive patients which were adapted to cilnidipine. Combined administration of cilnidipine and ARB was started for the treatment of hypertension in these patients.
(§3) A prospective continuous investigation method was conducted. Such a method is continuously conducted with the registered cases with the combined administration of cilnidipine (Atelec®) and ARB, until the number of cases reaches the contracted cases for each center.
(§4) Regarding the administration method of cilnidipine, 5 to 10 mg of cilnidipine was orally administered after breakfast once a day. Meanwhile, the amount may increase or decrease depending on patient's age, symptoms, or the like. When the effect is insufficient, the amount can be increased to 20 mg once a day. The dosing period of cilnidipine was set to 12 weeks in principle.
(§5) The following items were tracked during the investigation: patient's background (sex), existence or nonexistence of previous therapeutic agents and the content thereof, targeted blood pressure (systolic BP/diastolic BP), the conditions of administration of cilnidipine and ARB, antihypertensives used in combination (those other than cilnidipine or ARB), clinical course (systolic BP/diastolic BP/heart rate), and occurrence of side-effects. As for the availability of the combined administration, in the 12th week after starting the combined administration, the doctor in attendance judged the degree of the blood pressure controls on a three-point scale of “well-controlled”, “nearly well-controlled” and “poorly-controlled”, referring to the changes in the systolic and diastolic BP. As for the safety and availability analysis for each patient background, Fisher's exact probability test or the X^2 test was used. As for the blood pressure and heart rate, the average value and the standard deviation were calculated for the subjects before the combined administration (within 4 weeks before starting the combined administration), and data after starting the combined administration were determined on each observation day, and analysis was conducted by using a paired t-test. The test was conducted as the two-sided test and less than 5% of the risk rate was regarded as significant. Furthermore, side-effects were compiled based on the naming of preferred terms (PT) of MedDRA/J ver 8.0.
Table 7 and FIG. 2 show the number of cases for which the blood pressure was measured, and the changes in the measured values of systolic BP, diastolic BP, and heart rate were measured at the following time points: before starting the combined administration, 4 weeks, 8 weeks, and 12 weeks after starting the combined administration, and the last measurement, […] administration, n=2919). […] Then, it continued to slowly decrease, and the a stable change was seen up to 12 weeks after the start.

hypertensive patients [2] = test: Special investigation of combined use of cilnidipine and ARB: occurrence of side-effects (safety analysis); conditions: for side-effect number of cases / side-effect number of examples: cilnidipine and ARB; for side-effect occurence rate (%): combined administration of cilnidipine and ARB
Protocol: as §1
The investigation was conducted mainly in the departments of internal medicine/cardiovascular diseases of various medical institutions. The target of the estimated collected cases was about 3000 cases.
as §2, §3, §4, §5
The ratios of the cases wherein side-effects occurred were compared and examined between the sexes in the 2920 cases of the safety analysis (Table 5). […] The ratio thereof in a female group was 3.2% and that in a male group was 1.8%. […] The side-effects observed were mainly subjective symptoms such as headache, palpitation, and free-floating dizziness. Meanwhile, the ratio of the cases wherein the side-effects of these subjective symptoms occurred was low, and it is not a serious side-effect caused by the combined administration.

hypertensive patients [3] = test: Special investigation of combined use of cilnidipine and ARB: changes in heart rate; conditions: for heart rate after starting the combined administration / heart rate after starting the combined use: 12 weeks and later up to last measurement; for heart rate, aft. / heart rate, bef.: all availability cases; for heart rate, bef. use / heart rate, aft. use: only ARB
Protocol: as §1, §2, §3, §4, §5
Table 7 and FIG. 2 show the number of cases for which the blood pressure was measured, and the changes in the measured values of systolic BP, diastolic BP, and heart rate were measured at the following time points: before starting the combined administration, 4 weeks, 8 weeks, and 12 weeks after starting the combined administration, and the last measurement, which was 222.43 days in average from the start of the combined administration, n=2919). […] Then, it continued to slowly decrease, and the a stable change was seen up to 12 weeks after the start.

hypertensive patients [4] = test: Special investigation of combined use of cilnidipine and ARB: changes in systolic and diastolic blood pressure; conditions: only ARB, then cilnidipine singularly added; last measurement (222.03±143.88 days)
[5] = cilnidipine + ARB, 4 wks after use
[6] = cilnidipine + ARB, 8 wks after use
[7] = cilnidipine + ARB, 12 wks after use
[8] = cilnidipine + ARB, before combined use, 2,586 cases
[9] = cilnidipine + ARB, last measurement (222.43 days in average)
[10] = value before combined use of the 840 cases measured at 8 wks
[11] = value before combined use of the 950 cases measured at 12 wks
[12] = value before combined use of the 1,131 cases measured at 4 wks
[13] = value before combined use of the 2,565 cases with last measurement
[14] = then cilnidipine added, value before combined use of the 338 cases measured at 8 wks
[15] = then cilnidipine added, value before combined use of the 360 cases measured at 12 wks
[16] = then cilnidipine added, value before combined use of the 453 cases measured at 4 wks
[17] = then cilnidipine added, value before combined use of the 1,047 cases with last measurement
[18] = then cilnidipine singularly added, 4 wks after the use
[19] = then cilnidipine singularly added, 8 wks after the use
[20] = then cilnidipine singularly added, 12 wks after the use
[21] = then cilnidipine singularly added, before combined use, 1,055 cases
[22] = then cilnidipine singularly added, last measurement (222.03±143.88 days)
[23] = all availability cases with heart rate 75 or higher and less than 85 beats/min. before combined use
[24] = all availability cases with heart rate 85 beats/min. or higher before combined use
[25] = only ARB then cilnidipine added, cases with heart rate 75 or higher and less than 85 beats/min. before combined use
[26] = only ARB then cilnidipine added, cases with heart rate 85 beats/min. or higher before combined use

SMILES: COCCOC(=O)C1=C(C)NC(C)=C(C(=O)OC/C=C/c2ccccc2)C1c1cccc([N+](=O)[O-])c1 (racemic) [cilnidipine, 2-methoxyethyl-3-phenyl-2(E)-propenyl(±)-1,4-dihydro-2,6-dimethyl-4-(3-nitrophenyl)-3,5-pyridinedicarboxylate]
- diastolic BP, aft. (hypertensive patients [1]; [5]): 80.44 ± 11.30 mmHg
- systolic BP, aft. (hypertensive patients [1]; [5]): 144.31 ± 16.64 mmHg
- diastolic BP, aft. (hypertensive patients [1]; [6]): 78.69 ± 10.99 mmHg
- systolic BP, aft. (hypertensive patients [1]; [6]): 142.28 ± 17.41 mmHg
- diastolic BP, aft. (hypertensive patients [1]; [7]): 78.64 ± 11.39 mmHg
- systolic BP, aft. (hypertensive patients [1]; [7]): 140.57 ± 16.45 mmHg
- diastolic BP, bef. (hypertensive patients [1]; [8]): 89.49 ± 13.09 mmHg
- systolic BP, bef. (hypertensive patients [1]; [8]): 162.21 ± 19.21 mmHg
- diastolic BP, aft. (hypertensive patients [1]; [9]): 78.78 ± 10.68 mmHg
- systolic BP, aft. (hypertensive patients [1]; [9]): 139.67 ± 16.47 mmHg
- diastolic BP, bef. (hypertensive patients [1]; [10]): 88.22 ± 13.53 mmHg
- systolic BP, bef. (hypertensive patients [1]; [10]): 161.13 ± 18.47 mmHg
- diastolic BP, bef. (hypertensive patients [1]; [11]): 88.56 ± 13.48 mmHg
- systolic BP, bef. (hypertensive patients [1]; [11]): 161.63 ± 18.58 mmHg
- diastolic BP, bef. (hypertensive patients [1]; [12]): 88.80 ± 12.94 mmHg
- systolic BP, bef. (hypertensive patients [1]; [12]): 161.96 ± 19.46 mmHg
- diastolic BP, bef. (hypertensive patients [1]; [13]): 89.51 ± 13.09 mmHg
- systolic BP, bef. (hypertensive patients [1]; [13]): 162.19 ± 19.11 mmHg
- diastolic BP, bef. use (hypertensive patients [1]; [14]): 90.63 ± 13.13 mmHg
- systolic BP, bef. use (hypertensive patients [1]; [14]): 162.45 ± 16.04 mmHg
- diastolic BP, bef. use (hypertensive patients [1]; [15]): 90.26 ± 12.40 mmHg
- systolic BP, bef. use (hypertensive patients [1]; [15]): 161.92 ± 15.66 mmHg
- diastolic BP, bef. use (hypertensive patients [1]; [16]): 90.72 ± 12.00 mmHg
- systolic BP, bef. use (hypertensive patients [1]; [16]): 163.61 ± 15.91 mmHg
- diastolic BP, bef. use (hypertensive patients [1]; [17]): 91.31 ± 11.47 mmHg
- systolic BP, bef. use (hypertensive patients [1]; [17]): 163.11 ± 16.40 mmHg
- diastolic BP, aft. use (hypertensive patients [1]; [18]): 81.47 ± 10.51^b mmHg
- systolic BP, aft. use (hypertensive patients [1]; [18]): 143.91 ± 15.39^b mmHg
- diastolic BP, aft. use (hypertensive patients [1]; [19]): 79.75 ± 10.37^b mmHg
- systolic BP, aft. use (hypertensive patients [1]; [19]): 140.97 ± 15.94^b mmHg
- diastolic BP, aft. use (hypertensive patients [1]; [20]): 79.71 ± 11.23^b mmHg
- systolic BP, aft. use (hypertensive patients [1]; [20]): 140.09 ± 15.37^b mmHg
- diastolic BP, bef. use (hypertensive patients [1]; [21]): 91.26 ± 11.48 mmHg
- systolic BP, bef. use (hypertensive patients [1]; [21]): 163.09 ± 16.36 mmHg
- diastolic BP, aft. use (hypertensive patients [1]; [22]): 79.68 ± 10.68^b mmHg
- ratio of the cases wherein side-effects occurred (hypertensive patients [2]; cases on ARB alone to which cilnidipine was additionally administered): low
- side-effect number of cases (hypertensive patients [2]; female group, 1,481 cases): 56
- side-effect number of examples (hypertensive patients [2]; female group, 1,481 cases): 47
- side-effect occurence rate (%) (hypertensive patients [2]; female group, 1,481 cases): 3.2% and 3.17%
- side-effect number of cases (hypertensive patients [2]; male group, 1,416 cases): 32
- side-effect number of examples (hypertensive patients [2]; male group, 1,416 cases): 26
- side-effect occurence rate (%) (hypertensive patients [2]; male group, 1,416 cases): 1.8% and 1.84%
- side-effect number of cases (hypertensive patients [2]; sex unknown, 23 cases): 0
- side-effect number of examples (hypertensive patients [2]; sex unknown, 23 cases): 0
- side-effect occurence rate (%) (hypertensive patients [2]; sex unknown, 23 cases): 0%
- heart rate before starting the combined use (hypertensive patients [3]; [23]): 79.19±2.73 beats/min.
- heart rate after starting the combined administration (hypertensive patients [3]; [23]): 76.28±8.93 beats/min.
- heart rate before starting the combined use (hypertensive patients [3]; [24]): 93.48±7.28 beats/min.
- heart rate after starting the combined administration (hypertensive patients [3]; [24]): 84.57±11.17 beats/min.
- heart rate, aft. (hypertensive patients [3]; [5]): 73.80 ± 10.80 beat/min.
- heart rate, aft. (hypertensive patients [3]; [6]): 72.87 ± 10.53 beat/min.
- heart rate, aft. (hypertensive patients [3]; [7]): 73.61 ± 10.57 beat/min.
- heart rate, bef. (hypertensive patients [3]; cilnidipine + ARB, before combined use, 1,815 cases): 75.40 ± 11.47 beat/min.
- heart rate, aft. (hypertensive patients [3]; [9]): 73.18 ± 10.37 beat/min.
- heart rate, bef. (hypertensive patients [3]; value before combined use of the 557 cases measured at 8 wks): 73.83 ± 10.49 beat/min.
- heart rate, bef. (hypertensive patients [3]; value before combined use of the 664 cases measured at 12 wks): 75.33 ± 10.98 beat/min.
- heart rate, bef. (hypertensive patients [3]; value before combined use of the 765 cases measured at 4 wks): 75.06 ± 11.46 beat/min.
- heart rate, bef. (hypertensive patients [3]; value before combined use of the 1,615 cases with last measurement): 75.18 ± 11.30 beat/min.
- heart rate before starting the combined use (hypertensive patients [3]; [25]): 79.24±2.71 beats/min.
- heart rate after starting the combined use (hypertensive patients [3]; [25]): 76.87±8.37 beats/min.
- heart rate before starting the combined use (hypertensive patients [3]; [26]): 93.64±6.90 beats/min.
- heart rate after starting the combined use (hypertensive patients [3]; [26]): 84.30±10.58 beats/min.
- heart rate, bef. use (hypertensive patients [3]; then cilnidipine added, value before combined use of the 229 cases measured at 8 wks): 72.97 ± 10.16 beat/min.
- heart rate, bef. use (hypertensive patients [3]; then cilnidipine added, value before combined use of the 249 cases measured at 12 wks): 73.98 ± 10.44 beat/min.
- heart rate, bef. use (hypertensive patients [3]; then cilnidipine added, value before combined use of the 308 cases measured at 4 wks): 73.40 ± 10.54 beat/min.
- heart rate, bef. use (hypertensive patients [3]; then cilnidipine added, value before combined use of the 648 cases with last measurement): 74.26 ± 10.58 beat/min.
- heart rate, aft. use (hypertensive patients [3]; [18]): 72.49 ± 10.25^a beat/min.
- heart rate, aft. use (hypertensive patients [3]; [19]): 72.62 ± 10.60 beat/min.
- heart rate, aft. use (hypertensive patients [3]; [20]): 72.54 ± 10.28^a beat/min.
- heart rate, bef. use (hypertensive patients [3]; then cilnidipine singularly added, before combined use, 738 cases): 74.46 ± 10.76 beat/min.
- heart rate, aft. use (hypertensive patients [3]; [22]): 73.24 ± 10.51^a beat/min.
- systolic BP, aft. use (hypertensive patients [4]): 139.73 ± 15.77^b mmHg
